Test results from ChEMBL document CHEMBL3751750, “2-Amino-4-bis(aryloxybenzyl)aminobutanoic acids: A novel scaffold for inhibition of ASCT2-mediated glutamine transport” (Bioorg Med Chem Lett, 2016).

Experiments:
[1] = molecular target: T1, Neutral amino acid transporter B(0) (Homo sapiens, UniProt Q15758); experiment: Inhibition of ASCT2-mediated glutamine transport in human HEK293 cells using [3H]-glutamine after 15 mins by scintillation counting; assay type: cell-based
T1 sequence (Q15758 whole entry): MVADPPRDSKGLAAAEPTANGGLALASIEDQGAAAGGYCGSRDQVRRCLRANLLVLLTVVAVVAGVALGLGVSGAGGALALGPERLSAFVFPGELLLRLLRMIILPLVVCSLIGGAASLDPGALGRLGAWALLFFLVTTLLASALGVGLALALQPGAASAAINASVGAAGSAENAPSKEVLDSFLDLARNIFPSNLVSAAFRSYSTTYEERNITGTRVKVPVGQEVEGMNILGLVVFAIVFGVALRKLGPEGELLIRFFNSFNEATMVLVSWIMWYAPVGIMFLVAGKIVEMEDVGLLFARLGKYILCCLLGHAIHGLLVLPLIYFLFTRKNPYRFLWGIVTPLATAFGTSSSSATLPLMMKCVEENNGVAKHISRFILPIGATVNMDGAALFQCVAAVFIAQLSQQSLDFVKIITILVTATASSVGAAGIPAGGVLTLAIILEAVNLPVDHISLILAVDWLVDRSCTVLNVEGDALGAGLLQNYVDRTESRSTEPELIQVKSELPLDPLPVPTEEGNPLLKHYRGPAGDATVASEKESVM

Amino acid transporter = molecular target: T2, Amino acid transporter (Rattus norvegicus, UniProt Q9Z1J7); experiment: Inhibition of ASCT2-mediated glutamine transport in rat C6 cells using [3H]-glutamine after 15 mins by scintillation counting; assay type: cell-based
T2 sequence (Q9Z1J7 whole entry): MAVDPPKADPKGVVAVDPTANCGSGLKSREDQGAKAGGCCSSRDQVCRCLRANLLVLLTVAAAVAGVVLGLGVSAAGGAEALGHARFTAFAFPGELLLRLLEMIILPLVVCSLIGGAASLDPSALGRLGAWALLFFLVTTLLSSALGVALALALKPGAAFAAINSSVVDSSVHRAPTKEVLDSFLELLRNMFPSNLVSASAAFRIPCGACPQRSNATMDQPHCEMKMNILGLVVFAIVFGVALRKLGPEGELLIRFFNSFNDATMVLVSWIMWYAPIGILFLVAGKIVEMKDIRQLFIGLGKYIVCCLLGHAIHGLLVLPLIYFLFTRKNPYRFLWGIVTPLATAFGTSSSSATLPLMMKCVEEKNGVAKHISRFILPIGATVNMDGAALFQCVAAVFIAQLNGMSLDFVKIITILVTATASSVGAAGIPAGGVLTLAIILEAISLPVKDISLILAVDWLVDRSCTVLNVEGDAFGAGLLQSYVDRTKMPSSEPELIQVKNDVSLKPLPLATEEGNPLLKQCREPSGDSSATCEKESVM

[2] = molecular target: T1, Neutral amino acid transporter B(0); experiment: Inhibition of ASCT2 (unknown origin)-mediated glutamine transport

Row | IC50 [1] [µM] | IC50 (Amino acid transporter) [µM] | IC50 [2] [µM] | Compound
1 | 25.6 | 41.7 |  | Cc1ccccc1COc1ccccc1CN(CC[C@H](N)C(=O)O)Cc1ccccc1OCc1ccccc1C
2 | 40.1 | 18.4 |  | N[C@@H](CCN(Cc1ccccc1OCc1ccccc1Cl)Cc1ccccc1OCc1ccccc1Cl)C(=O)O
3 | 26 |  |  | N[C@@H](CCN(Cc1ccccc1Oc1ccc(Cl)cc1)Cc1ccccc1Oc1ccc(Cl)cc1)C(=O)O
4 | 33.8 | 1.8 |  | N[C@@H](CCN(Cc1ccccc1Oc1ccccc1F)Cc1ccccc1Oc1ccccc1F)C(=O)O
5 | 69.1 | 17.3 |  | N[C@@H](CCN(Cc1ccccc1OCc1cccnc1)Cc1ccccc1OCc1cccnc1)C(=O)O
6 | 11.9 | 8.7 |  | COc1ccc(Oc2ccccc2CN(CC[C@H](N)C(=O)O)Cc2ccccc2Oc2ccc(OC)cc2)cc1
7 |  |  | 30 | N[C@@H](COC(=O)c1ccc(-c2ccccc2)cc1)C(=O)O
8 | 48.3 | 8.4 |  | N[C@@H](CCN(Cc1ccccc1OCc1ccccn1)Cc1ccccc1OCc1ccccn1)C(=O)O
9 |  | 3.3 |  | N[C@@H](CCN(Cc1ccccc1OCc1ccccc1F)Cc1ccccc1OCc1ccccc1F)C(=O)O
10 | 50.8 | 12.7 |  | N[C@@H](CCN(Cc1ccccc1OCc1cccc(Cl)c1)Cc1ccccc1OCc1cccc(Cl)c1)C(=O)O
11 | 142 | 10.5 |  | N[C@@H](CCN(Cc1ccccc1Oc1ccc(F)cc1)Cc1ccccc1Oc1ccc(F)cc1)C(=O)O
12 | 7.2 | 5.1 |  | COc1cccc(COc2ccccc2CN(CC[C@H](N)C(=O)O)Cc2ccccc2OCc2cccc(OC)c2)c1
13 | 33.7 | 20.1 |  | N[C@@H](CCN(Cc1ccccc1OCc1ccc(Cl)cc1)Cc1ccccc1OCc1ccc(Cl)cc1)C(=O)O
14 | 1200 |  | 1000 | N[C@@H](CCC(=O)Nc1ccc([N+](=O)[O-])cc1)C(=O)O
15 |  |  | 3.7 | N#Cc1cc(Br)ccc1/N=c1\ssnc1Cl

Row | Compound | IC50 [1] [µM] | IC50 (Amino acid transporter) [µM] | IC50 [2] [µM]
16 | COc1cccc(Oc2ccccc2CN(CC[C@H](N)C(=O)O)Cc2ccccc2Oc2cccc(OC)c2)c1 | 57.2 | 1.3 | 
17 | N[C@@H](CCN(Cc1ccccc1Oc1ccccn1)Cc1ccccc1Oc1ccccn1)C(=O)O | 59.6 | 68.2 | 
18 | Cc1ccc(COc2ccccc2CN(CC[C@H](N)C(=O)O)Cc2ccccc2OCc2ccc(C)cc2)cc1 | 17.5 | 86.4 | 
19 | N[C@@H](CCN(Cc1ccccc1OCc1ccc(F)cc1)Cc1ccccc1OCc1ccc(F)cc1)C(=O)O |  | 11.2 | 
20 | N[C@@H](CCN(Cc1ccccc1Oc1cccc(F)c1)Cc1ccccc1Oc1cccc(F)c1)C(=O)O |  | 36.3 | 
